From US11083714B2, “Selective anti-cancer agent effective for prevention and treatment” (Molecular International Research, Inc., priority 2018, dated 2021)
Like-named read-outs stand apart in the source and are kept apart here.

Legend:
[1] = assay type: in vivo; conditions: 100, 150 and 200 mg/kg, groups of two, 48 hr observation
Procedure: A study with synthetic compounds 13-7-2 (flavopereirine) and 13-9-1 (de-ethylflavopereirine) was conducted to compare the toxicity of the two compounds in animals. The compounds were dissolved in phosphate buffered saline for administration. Both compounds were injected IP in male immunodeficient (homozygous recessive scid/scid, beige/beige) mice.
Compound 13-7-2 was injected at a dose of 100 mg/kg, 150 mg/kg, and 200 mg/kg in mice divided in groups of two. […] One mouse injected with 150 mg/kg died at 6 hr whereas one mouse injected with 200 mg/kg dose died at 24 hr. One mouse injected with 100 mg/kg dose died at 48 hr.
Compound 13-9-1 was injected at a dose of 100 mg/kg, 150 mg/kg, and 200 mg/kg in mice divided in groups of two.

[2] = Plasma concentrations after intravenous or oral administration; assay type: in vivo, mice
Procedure: FIG. 15. Plasma concentrations of de-ethylflavopereirine following intravenous or oral administration: intravenous at 20 mg/kg (lozenges) having a peak at approximately 2 hours, oral at 100 mg/kg (squares), or oral at 200 mg/kg (triangles) having a peak at approximately 4 hours.
Oral administration was chosen for the mouse experiments because administration is simplified by avoiding the need for tail vein injections.

PANC-1 cells = experiment: CD24/CD44/EpCam triple positive cells by flow cytometry; assay type: cell-based; conditions: 2.5, 5, 10 μM
Procedure: FIG. 24. De-ethylflavopereirine decreased the percentage of cancer stem cells in a pancreatic cancer cell population (24 hours). The panels show CD44 (PE-Cy7) positive and EpCam (APC) positive cells in the CD24 (PE) gate at concentrations of 0 μM (upper left), 2.5 μM (upper right), 5 μM (lower left), and 10 μM (lower right) de-ethylflavopereirine after 24 hr. “Q1”=CD24^+/CD44^+, “Triple+”=CD24^+/CD44^+/EpCam^+, “Q3”=CD24^+, and “Q4”=CD24^+/EpCam^+.
FIG. 25. De-ethylflavopereirine decreased the percentage of cancer stem cells in a pancreatic cancer cell population (48 hours). The panels show CD44 (PE-Cy7) positive and EpCam (APC) positive cells in the CD24 (PE) gate at concentrations of 0 μM (upper left), 2.5 μM (upper right), 5 μM (lower left), and 10 μM (lower right) de-ethylflavopereirine after 48 hr. “Q1”=CD24^+/CD44^+, “Triple+”=CD24^+/CD44^+/EpCam^+, “Q3”=CD24^+, and “Q4”=CD24^+/EpCam^+.
Cancer stem cells can be identified by specific cell-surface markers. A combination of three markers CD24, CD44, and EpCam is used for detection of pancreatic cancer stem cells. These markers can be labeled by different fluorophores and detected simultaneously by flow cytometry. Triple positive cells (i.e., cells that express all three markers) are regarded as pancreatic cancer stem cells. De-ethylflavopereirine reduced the percentage of pancreatic cancer stem cells in pancreatic cancer cell populations. PANC-1 cells were treated with 2.5 μM, 5.0 μM, and 10 μM concentrations of the compound for 24 hours or 48 hours. Triple positive cells were identified in quadrant Q2 (“Triple+”) of the flow cytometry output.

c1ccc2c(c1)[nH]c1c2cc[n+]2ccccc12 [Compound 13-9-1, 12H-indolo[2,3-a]quinolizin-5-ium]
deaths after IP injection [1]: None of the mice injected with compound 13-9-1 died | deaths after IP injection ([1]; listed as de-ethylflavopereirine): no mice injected IP with de-ethylflavopereirine died | time of peak plasma concentration ([2]; intravenous at 20 mg/kg): approximately 2 hours | time of peak plasma concentration ([2]; oral at 200 mg/kg (sentence also lists oral at 100 mg/kg)): approximately 4 hours | CD24+/CD44+/EpCam+ (triple positive) cell population (PANC-1 cells; 24 hr, listed as De-ethylflavopereirine): Reduction | CD24+/CD44+/EpCam+ (triple positive) cell population (PANC-1 cells; 24 hr, listed as de-ethylflavopereirine): reduced the CD24^+/CD44^+/EpCam^+ cell population | CD24+/CD44+/EpCam+ (triple positive) cell population (PANC-1 cells; 48 hr): reduced the CD24^+/CD44^+/EpCam^+ cell population
